According to US10039758B2 (priority 2014, dated 2018):
pEC50: −log10 of the molar value. “Also recorded” adds a separate entry of the source. Like-named read-outs stand apart in the source and are kept apart here.

How the values were obtained:
Ebola virus = details: cited from earlier work
cathepsin B [1] = molecular target: T1, cathepsin B (Mus musculus, UniProt P10605); format: cell-based; details: RAW264.7, 4-66 uM, 1 hour before lysis (FIG. 17)
[2] = molecular target: purified human cathepsin B (Homo sapiens, UniProt P07858); format: biochemical; details: 4, 8, 16, 33, 66 uM, without drug pre-incubation (FIG. 16)
in vitro [3] = details: human
LF = LF (Bacillus anthracis, UniProt P15917); format: biochemical
LF, sequence (P15917 34-809 limits assumed): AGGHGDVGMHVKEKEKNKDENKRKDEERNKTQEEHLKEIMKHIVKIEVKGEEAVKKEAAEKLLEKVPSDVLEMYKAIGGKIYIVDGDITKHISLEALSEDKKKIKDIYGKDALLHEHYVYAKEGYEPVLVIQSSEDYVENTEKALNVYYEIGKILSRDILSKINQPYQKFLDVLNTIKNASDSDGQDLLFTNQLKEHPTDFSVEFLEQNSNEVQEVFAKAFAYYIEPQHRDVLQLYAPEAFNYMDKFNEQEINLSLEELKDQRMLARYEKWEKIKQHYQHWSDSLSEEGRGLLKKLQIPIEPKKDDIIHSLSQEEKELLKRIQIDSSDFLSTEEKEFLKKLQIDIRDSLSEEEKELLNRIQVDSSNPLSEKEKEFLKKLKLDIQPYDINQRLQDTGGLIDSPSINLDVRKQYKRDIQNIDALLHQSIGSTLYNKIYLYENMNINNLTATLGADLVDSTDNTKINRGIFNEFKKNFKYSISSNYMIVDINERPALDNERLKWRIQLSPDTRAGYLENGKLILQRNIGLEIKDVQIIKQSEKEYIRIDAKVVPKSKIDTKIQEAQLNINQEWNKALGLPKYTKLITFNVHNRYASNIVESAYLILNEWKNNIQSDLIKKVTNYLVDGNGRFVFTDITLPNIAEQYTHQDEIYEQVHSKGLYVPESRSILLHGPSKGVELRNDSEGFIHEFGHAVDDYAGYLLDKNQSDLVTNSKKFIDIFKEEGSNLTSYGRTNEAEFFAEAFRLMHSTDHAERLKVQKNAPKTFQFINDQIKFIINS

MEK2 = format: cell-based, mouse
cathepsin B [4] = molecular target: cathepsin B (Homo sapiens, UniProt P07858); format: binding
acidic organelles = format: cell-based, mouse; details: RAW264.7, AQ 1 hour, 500 ng/ml PA 1 hour
Ebola virus (Kikwit) = assay: microbe, parasite or virus in culture; format: cell-based; details: Zaire ebolavirus, HeLa, 48 h
[5] = system: Human Cytomegalovirus (CMV Strain AD169); details: Human Cytomegalovirus assay
PA = format: cell-based, mouse
in vitro [6] = details: human; remark: listed apart in the source
caspase-1 = format: cell-based, mouse
Chikungunya virus (CHIV) = assay: microbe, parasite or virus in culture; details: HFF-1
[7] = system: Clostridium difficile Toxin B, RAW264.7 cells
[8] = system: Respiratory syncytial virus (RSV): Strain A-2; assay: microbe, parasite or virus in culture; format: cell-based; details: human respiratory syncytial virus, HEp-2
[9] = system: anthrax lethal toxin (LF-PA), RAW264.7 cells; format: cell-based, mouse
in vitro [10] = assay: in vitro
PA+FP59, RAW264.7 cells = format: cell-based, mouse
cathepsin B [11] = molecular target: T1, cathepsin B; format: biochemical; details: RAW264.7 lysate, 4-66 uM (FIG. 18)
[12] = system: diphtheria toxin, C32 human melanoma cell line; format: cell-based
[13] = system: anthrax toxin (12 μg LF + 40 μg PA); design: species or system Sprague-Dawley rats; details: rat, in vivo
endosomal acidification = details: cited from earlier work
[14] = system: host lysosomal cathepsin B; details: cited from earlier work

T1 sequence (P10605 80-333): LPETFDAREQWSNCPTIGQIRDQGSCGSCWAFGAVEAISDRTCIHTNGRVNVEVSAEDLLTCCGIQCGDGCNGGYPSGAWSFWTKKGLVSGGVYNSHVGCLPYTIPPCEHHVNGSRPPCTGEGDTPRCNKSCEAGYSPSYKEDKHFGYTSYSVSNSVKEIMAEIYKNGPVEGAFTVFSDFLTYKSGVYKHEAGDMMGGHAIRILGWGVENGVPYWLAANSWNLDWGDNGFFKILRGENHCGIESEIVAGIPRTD

CCN(CC)Cc1cc(Nc2ccnc3cc(Cl)ccc23)ccc1O [AQ, Amodiaquine]
inhibition of Ebola virus pathogenicity in cells (Ebola virus): inhibit Ebola virus pathogenicity in cells | cathepsin B enzymatic activity in cells pre-treated with drug (cathepsin B [1]): lost cathepsin B enzymatic activity in a dose dependent manner | inhibition of cathepsin B activity, purified human cathepsin B [2]: directly inhibit cathepsin B activity in a dose dependent manner | CC50 (in vitro [3]): 50 µM | proteolytic activity of LF on MAPKK peptide (emission at 523 nm) (LF): does not block the proteolytic activity of LF | cleavage of MEK2 by LF in cells (immunoblot) (MEK2): completely prevented this effect | binding to cathepsin B (STD difference spectrum) (cathepsin B [4]; 2 mM AQ, 20 μM cathepsin B): binding to the enzyme | STD effect, atom H4 (cathepsin B [4]; relative to the H4 atom (100%)): 100% | STD effect, atom H5 (cathepsin B [4]; relative to the H4 atom (100%)): 97% | cell-associated Lysosensor fluorescence (endosomal acidification) (acidic organelles): markedly decreased cell-associated Lysosensor fluorescence | pEC50 (Ebola virus (Kikwit)): 5.42 | CC50 [5]: > 60 µM | binding of PA83 to cells and proteolytic processing of PA to PA63 (PA): did not block binding of PA83 to cells or block proteolytic processing of PA to generate PA63 | CC50 (in vitro [6]): > 50 µM | active caspase-1 (FLICA fluorescence) after LF-PA (caspase-1): not detected | pEC50 (Chikungunya virus (CHIV)): 4.74 | survival of RAW264.7 macrophages exposed to Clostridium difficile Toxin B [7]: increase survival | pEC50 [8]: 4.49 | protection of host cells against anthrax toxin killing (cell survival) [9]: increased survival; also recorded: completely protect | sensitivity of host cells to PA83+LF versus PA63+LF [9]: equally reduces sensitivity of host cells to both PA83+LF and PA63+LF treatments | CC50 (in vitro [10]): 31 µM | sensitivity of cells to PA+FP59 (PA+FP59, RAW264.7 cells): less sensitive to treatment with PA+FP59 | cathepsin B activity in protein lysate from cells not exposed to drugs prior to lysis (cathepsin B [11]): inhibited cathepsin B activity | multiplex hit in JHCCL screen: inhibition of anthrax and diphtheria toxin cell killing [12]: inhibited anthrax and diphtheria toxins | survival of C32 cells exposed to diphtheria toxin [12]: increase survival | clinical signs of toxin challenge [13]: all of the animals in that group displayed classical signs of having undergone a toxin challenge | survival and toxin-associated symptoms [13]: survived; also recorded: protected all of the rats; also recorded: all survived without displaying toxin-associated symptoms

CCN(CC)CCCC(C)Nc1ccnc2cc(Cl)ccc12 (stereo not drawn) [CQ, Chloroquine]
inhibition of Ebola virus pathogenicity in cells (Ebola virus): inhibit Ebola virus pathogenicity in cells | cathepsin B enzymatic activity in cells pre-treated with drug (cathepsin B [1]): weaker inhibitors of cathepsin B activity | inhibition of cathepsin B activity, purified human cathepsin B [2]: weaker inhibitors of cathepsin B activity | endosomal acidification (endosomal acidification): prevent endosomal acidification | cathepsin B activity in protein lysate from cells not exposed to drugs prior to lysis (cathepsin B [11]): weaker inhibitors of cathepsin B activity | multiplex hit in JHCCL screen: inhibition of anthrax and diphtheria toxin cell killing [12]: inhibited anthrax and diphtheria toxins

C=C[C@H]1C[N@@]2CC[C@H]1C[C@@H]2[C@@H](O)c1ccnc2ccccc12 [Cinchonine]
protection of host cells against anthrax toxin killing (cell survival) [9]: none of the other quinoline-containing antimalarial compounds, Cinchonine, Primaquine, and Quinidine, from JHCCL were active

CCNCc1cc(Nc2ccnc3cc(Cl)ccc23)ccc1O [DEAQ, N-Desethyl Amodiaquine]
cathepsin B enzymatic activity in cells pre-treated with drug (cathepsin B [1]): lost cathepsin B enzymatic activity in a dose dependent manner | inhibition of cathepsin B activity, purified human cathepsin B [2]: directly inhibit cathepsin B activity in a dose dependent manner | pEC50 (Ebola virus (Kikwit)): 5.44 | protection of host cells against anthrax toxin killing (cell survival) [9]: increased survival | cathepsin B activity in protein lysate from cells not exposed to drugs prior to lysis (cathepsin B [11]): inhibited cathepsin B activity

CCNCCCC(C)Nc1ccnc2cc(Cl)ccc12 (stereo not drawn) [DECQ, Desethyl-Chloroquine]
cathepsin B enzymatic activity in cells pre-treated with drug (cathepsin B [1]): weaker inhibitors of cathepsin B activity | inhibition of cathepsin B activity, purified human cathepsin B [2]: weaker inhibitors of cathepsin B activity | cathepsin B activity in protein lysate from cells not exposed to drugs prior to lysis (cathepsin B [11]): weaker inhibitors of cathepsin B activity

COc1cc(NC(C)CCCN)c2ncccc2c1 (stereo not drawn) [Primaquine]
protection of host cells against anthrax toxin killing (cell survival) [9]: none of the other quinoline-containing antimalarial compounds, Cinchonine, Primaquine, and Quinidine, from JHCCL were active

C=C[C@H]1C[N@@]2CC[C@H]1C[C@@H]2[C@@H](O)c1ccnc2ccc(OC)cc12 [Quinidine]
protection of host cells against anthrax toxin killing (cell survival) [9]: none of the other quinoline-containing antimalarial compounds, Cinchonine, Primaquine, and Quinidine, from JHCCL were active

CA-074
effect of cathepsin B inhibition on cellular sensitivity to LF-PA [14]: reduction of cellular sensitivity to LF-PA
